Measurements published in PMC4750701, “Role of Mitochondrial RNA Polymerase in the Toxicity of Nucleotide Inhibitors of Hepatitis C Virus” (Antimicrobial Agents and Chemotherapy, 2016).

Assays:
RNA PolI = target: T1, RNA PolI (Rattus norvegicus, UniProt O54889); experiment: RNA PolI inhibition assay; format: biochemical; conditions: NTP analogs 0 to 500 μM; read-out: Mean IC50 ± SD for RNA PolI
T1 construct: complexes were isolated from rat NSN1 cells and HeLa cells, respectively; made in house; host or cells: rat NSN1 cells expressing a FLAG-tagged Pol I subunit
T1 sequence (O54889 whole entry): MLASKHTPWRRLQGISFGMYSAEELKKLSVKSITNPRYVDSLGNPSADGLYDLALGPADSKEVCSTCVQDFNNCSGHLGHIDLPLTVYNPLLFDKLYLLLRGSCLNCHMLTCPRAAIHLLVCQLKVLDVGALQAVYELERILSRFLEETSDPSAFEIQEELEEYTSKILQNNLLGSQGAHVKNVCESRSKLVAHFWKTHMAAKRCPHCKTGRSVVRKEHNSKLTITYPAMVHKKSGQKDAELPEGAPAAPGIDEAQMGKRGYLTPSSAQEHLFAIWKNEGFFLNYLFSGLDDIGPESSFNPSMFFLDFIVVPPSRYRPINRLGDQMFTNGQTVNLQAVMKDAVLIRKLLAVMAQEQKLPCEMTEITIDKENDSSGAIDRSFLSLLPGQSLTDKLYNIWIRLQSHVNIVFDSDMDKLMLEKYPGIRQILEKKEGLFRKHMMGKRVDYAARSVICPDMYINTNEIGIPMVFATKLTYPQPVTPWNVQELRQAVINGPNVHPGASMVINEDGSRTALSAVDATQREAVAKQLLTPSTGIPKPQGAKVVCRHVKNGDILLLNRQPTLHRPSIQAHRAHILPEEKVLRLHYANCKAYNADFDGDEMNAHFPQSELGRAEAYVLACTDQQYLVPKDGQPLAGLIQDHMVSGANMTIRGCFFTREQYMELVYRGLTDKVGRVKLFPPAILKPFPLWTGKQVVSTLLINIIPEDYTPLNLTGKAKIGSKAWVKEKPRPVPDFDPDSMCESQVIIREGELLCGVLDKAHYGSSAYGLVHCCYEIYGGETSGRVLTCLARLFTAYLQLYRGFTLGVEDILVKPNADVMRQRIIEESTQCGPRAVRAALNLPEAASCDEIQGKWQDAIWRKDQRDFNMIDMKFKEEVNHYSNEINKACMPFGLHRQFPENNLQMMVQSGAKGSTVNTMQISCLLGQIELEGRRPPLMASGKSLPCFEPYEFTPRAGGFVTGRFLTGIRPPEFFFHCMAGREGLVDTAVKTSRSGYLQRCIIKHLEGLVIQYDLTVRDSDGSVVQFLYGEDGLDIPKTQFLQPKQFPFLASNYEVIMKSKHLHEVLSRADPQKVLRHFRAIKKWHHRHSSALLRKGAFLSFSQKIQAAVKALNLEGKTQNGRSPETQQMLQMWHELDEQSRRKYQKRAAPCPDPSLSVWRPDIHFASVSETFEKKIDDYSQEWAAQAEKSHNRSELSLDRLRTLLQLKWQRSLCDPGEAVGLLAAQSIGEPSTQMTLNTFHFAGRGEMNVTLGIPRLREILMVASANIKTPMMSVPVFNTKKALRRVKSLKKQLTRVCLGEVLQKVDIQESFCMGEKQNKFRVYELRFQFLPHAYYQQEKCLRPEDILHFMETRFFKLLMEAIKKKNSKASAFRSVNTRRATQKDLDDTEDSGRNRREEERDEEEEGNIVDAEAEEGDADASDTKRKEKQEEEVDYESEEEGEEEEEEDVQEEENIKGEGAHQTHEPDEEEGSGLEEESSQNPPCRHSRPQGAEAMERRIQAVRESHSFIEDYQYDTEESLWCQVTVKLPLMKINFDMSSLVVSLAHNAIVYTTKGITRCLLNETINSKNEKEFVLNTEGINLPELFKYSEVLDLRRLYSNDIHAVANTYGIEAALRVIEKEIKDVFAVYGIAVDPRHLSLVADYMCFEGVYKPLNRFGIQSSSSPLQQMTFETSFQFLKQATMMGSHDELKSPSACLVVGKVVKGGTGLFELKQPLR
Description: (§1) Human DNA polymerase alpha, isolated from HeLa cell extracts, was from CHIMERx (Madison, WI). Recombinant human DNA polymerase beta, expressed in E. coli, was a gift from Zucai Suo at The Ohio State University. Recombinant human DNA polymerase gamma (including both the large subunit and the small subunit) was cloned, expressed, and purified from insect cells by Gilead Sciences (Foster City, CA) ([13]). RNA PolII was purchased as part of the HeLaScribe nuclear extract in vitro transcription system kit from Promega (Madison, WI). The recombinant human PolRMT and the transcription factors mitochondrial transcription factor A (mtTFA) and B2 (mtTFB2) were purchased from Enzymax (Lexington, KY). FLAG epitope-tagged RNA PolI and PolIII complexes were isolated from rat NSN1 cells and HeLa cells, respectively ([17], [18]). The inhibition of DNA polymerases alpha, beta, and gamma, PolRMT, and PolII and the rate of single-nucleotide incorporation by PolRMT have been described previously in detail ([12], [13], [19]). Inhibition of RNA PolI and PolIII was studied using published methods ([20], [21]). All concentrations were final unless noted otherwise. For the RNA PolI inhibition assay, a reaction mixture containing 50 mM HEPES (pH 7.9), 20% glycerol, 100 mM KCl, 1 mM dithiothreitol (DTT), 50 μg/ml calf thymus DNA, 4 mM MgCl2, 5 or 80 μM UTP (0.25 μl of [5,6-^3H]UTP, >25 Ci/mmol; PerkinElmer), 1 mM noncompeting NTP, competing NTP (5 μM for GTP, CTP, and UTP and 25 μM for ATP), and various concentrations (0 to 500 μM) of NTP analogs was preincubated at 30°C for 5 min. […] After incubation at 30°C for 20 min to 1 h, the reactions were terminated by pipetting the mixtures onto DEAE-cellulose discs (DE81; Whatman), and the products analyzed as described previously ([20], [21]).

RNA PolIII = target: T2, RNA PolIII (Homo sapiens, UniProt O14802+Q9NW08); experiment: RNA PolIII inhibition assay; format: biochemical; conditions: competing NTP 100 μM CTP and GTP, 500 μM ATP; read-out: Mean IC50 ± SD for RNA PolIII
T2 construct: complexes were isolated from rat NSN1 cells and HeLa cells, respectively; made in house; host or cells: HeLa cells expressing a FLAG-tagged Pol III subunit
Description: as §1
The RNA PolIII inhibition assay was conducted in a similar manner, except that the concentrations of the competing NTP were modified to 100 μM for CTP and GTP and 500 μM for ATP to compensate for the low assay signal at lower NTP concentrations.

RNA PolII = target: T3, RNA PolII (Homo sapiens, UniProt P24928+P30876); experiment: Inhibition of RNA PolII (HeLaScribe nuclear extract transcription); format: biochemical; conditions: nucleotide analogs (Table 6); read-out: Mean IC50 ± SD for RNA PolII
T3 construct: purchased as part of the HeLaScribe nuclear extract in vitro transcription system kit; purchased Promega (Madison, WI); host or cells: HeLa nuclear extract (endogenous enzyme)
Description: (§2) Activated fish sperm DNA was purchased from USB/Affymetrix (Santa Clara, CA) and used as a template for the DNA polymerases alpha, beta, and gamma. The DNA template used in the RNA Pol II assay was a 1,188-bp restriction fragment containing the cytomegalovirus (CMV) immediate early promoter (Promega, Madison, WI). The RNA and DNA oligonucleotides used in the mitochondrial RNA polymerase assay (see Table S1 in the supplemental material) were synthesized and PAGE purified by Thermo Scientific/Dharmacon (Lafayette, CO). RNA primer R12 was 5′-^32P-phosphorylated with [γ-^32P]ATP (3,000 Ci/mmol) and T4 kinase (New England BioLabs, Ipswich, MA).
as §1

[1] = target: T4, Recombinant human DNA polymerase beta (Homo sapiens, UniProt P06746); experiment: Inhibition of human DNA polymerase beta; format: biochemical; conditions: triphosphate form of the compound tested; read-out: Mean IC50 ± SD for DNA Pol β
T4 construct: host or cells: E. coli
Description: as §2, §1

[2] = target: T5, Recombinant human DNA polymerase gamma (Homo sapiens, UniProt P54098); experiment: Inhibition of human DNA polymerase gamma; format: biochemical; conditions: triphosphate form of the compound tested; read-out: Mean IC50 ± SD for DNA Pol γ
T5 construct: made in house; host or cells: insect cells
T5 sequence (P54098 1-1239): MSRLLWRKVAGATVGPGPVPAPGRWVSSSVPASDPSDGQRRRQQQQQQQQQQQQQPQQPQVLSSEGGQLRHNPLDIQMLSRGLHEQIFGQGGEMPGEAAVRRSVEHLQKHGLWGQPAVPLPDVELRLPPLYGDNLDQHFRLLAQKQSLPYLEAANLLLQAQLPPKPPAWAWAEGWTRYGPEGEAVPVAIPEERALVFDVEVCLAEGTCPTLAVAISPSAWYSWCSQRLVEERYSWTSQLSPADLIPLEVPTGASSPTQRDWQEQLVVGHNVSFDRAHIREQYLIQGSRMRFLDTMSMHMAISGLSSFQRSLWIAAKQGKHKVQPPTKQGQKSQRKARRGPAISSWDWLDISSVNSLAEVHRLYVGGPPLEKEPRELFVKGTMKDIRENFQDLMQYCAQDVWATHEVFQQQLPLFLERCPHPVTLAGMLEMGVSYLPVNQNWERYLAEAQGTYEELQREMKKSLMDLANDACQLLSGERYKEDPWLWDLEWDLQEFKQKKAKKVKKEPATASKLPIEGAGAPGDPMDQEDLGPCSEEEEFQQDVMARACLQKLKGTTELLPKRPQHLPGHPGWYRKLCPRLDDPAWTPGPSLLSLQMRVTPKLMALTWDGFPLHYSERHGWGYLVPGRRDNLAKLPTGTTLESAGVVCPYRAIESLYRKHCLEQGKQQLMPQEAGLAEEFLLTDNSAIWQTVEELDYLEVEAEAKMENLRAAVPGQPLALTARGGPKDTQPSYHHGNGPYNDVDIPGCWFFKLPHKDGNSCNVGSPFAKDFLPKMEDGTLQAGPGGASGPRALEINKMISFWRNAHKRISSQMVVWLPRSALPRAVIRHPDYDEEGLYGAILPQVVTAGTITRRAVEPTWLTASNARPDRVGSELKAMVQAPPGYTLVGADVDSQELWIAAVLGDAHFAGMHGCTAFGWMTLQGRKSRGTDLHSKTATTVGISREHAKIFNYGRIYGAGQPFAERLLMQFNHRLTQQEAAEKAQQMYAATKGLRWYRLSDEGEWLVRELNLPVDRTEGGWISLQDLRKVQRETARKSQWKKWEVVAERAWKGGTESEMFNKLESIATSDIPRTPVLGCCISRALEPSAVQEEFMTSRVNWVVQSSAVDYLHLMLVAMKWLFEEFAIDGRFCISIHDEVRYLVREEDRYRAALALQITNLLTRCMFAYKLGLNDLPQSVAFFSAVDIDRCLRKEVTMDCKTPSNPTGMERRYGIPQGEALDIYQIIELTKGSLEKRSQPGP
T5 sequence (Q9UHN1 26-485 partner limits assumed): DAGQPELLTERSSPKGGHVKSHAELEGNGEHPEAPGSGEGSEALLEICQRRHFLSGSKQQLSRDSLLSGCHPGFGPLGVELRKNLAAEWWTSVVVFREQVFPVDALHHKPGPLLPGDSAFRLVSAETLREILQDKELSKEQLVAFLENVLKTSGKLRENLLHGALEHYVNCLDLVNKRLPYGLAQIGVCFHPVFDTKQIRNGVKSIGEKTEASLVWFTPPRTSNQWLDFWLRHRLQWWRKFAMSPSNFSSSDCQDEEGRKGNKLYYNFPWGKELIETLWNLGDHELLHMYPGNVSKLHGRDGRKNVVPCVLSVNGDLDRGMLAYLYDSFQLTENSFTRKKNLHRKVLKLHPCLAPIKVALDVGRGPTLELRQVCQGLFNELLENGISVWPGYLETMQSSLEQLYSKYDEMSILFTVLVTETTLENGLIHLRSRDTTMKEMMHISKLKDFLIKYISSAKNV
Description: as §2, §1

[3] = Cytotoxicity / ATP level in PC-3 cells, 5-day treatment; conditions: human, PC-3 cells
Description: (§4) All cells were cultured at 37°C in a 5% CO2 incubator with 90% humidity unless noted otherwise. […] All cells were treated with the various compounds for 5 days, except for human erythroid and myeloid progenitors, which were treated for 14 days. After the incubation period, cell viability was measured by the addition of CellTiter Glo viability reagents (Promega, Madison, WI). The luminescence signal was quantified on an Envision luminescence plate reader (PerkinElmer, Waltham, MA) after incubation of the reagents and cells for 10 min at room temperature. […] CC50 values were calculated as the average of the results of three or four independent experiments.
Cell Culture and Cytotoxicity Studies
(§5) The Huh-7 cells were maintained in growth medium containing Dulbecco's Modified Eagle
(§6) Medium (DMEM, Cellgro) supplemented with 1% Nonessential Amino Acids (NEAA, Cellgro,
(§7) Manassas, VA), 10% fetal bovine serum (FBS, HyClone, Logan, UT) and 1% Penicillin-
(§8) streptomycin-glutamate (PSG, Invitrogen, Carlsbad, CA). The cells were passaged twice weekly
(§9) and maintained at 90% confluence densities.
(§10) The HepG2 cells were maintained in Eagle’s Minimum Essential Medium (EMEM) from ATCC
(§11) (Manassas, VA) supplemented with 10% FBS, 100 units/mL penicillin and 100 µg/mL
(§12) streptomycin (P/S) (Gibco). The cells were passaged twice weekly and maintained at 90%
(§13) The PC-3 cells were maintained in Kaighn’s F12 medium (Gibco, Carlsbad, CA) supplemented
(§14) with 10% FBS (HyClone, Logan, UT), 100 units/mL penicillin and 100 µg/mL streptomycin
(§15) (P/S) (Gibco). The cells were passaged twice weekly and maintained at 90% confluence. Cells
(§16) between passages 4 and 15 were used in the assays.
(§17) The fibroblast cell line MRC-5 cell line derived from normal lung tissue, was purchased from
(§18) ATCC (Manassas, VA) and cultured in Minimum Essential Medium (MEM) (Cellgro, Manassas,
(§19) VA) supplemented with 10% FBS (HyClone, Logan, UT) and 1% PSG (Invitrogen). The cells
(§20) were passaged twice weekly and maintained at 90% confluence densities.

[4] = Cytotoxicity in Huh7 cells, 5-day treatment (CellTiter Glo); conditions: human, Huh-7 cells
Description: as §4
Cell Culture and Cytotoxicity Studies
as §5, §6, §7, §8, §9, §10, §11, §12, §13, §14, §15, §16, §17, §18, §19, §20

[5] = Cytotoxicity in HepG2 (galactose) cells, 5-day treatment; conditions: human, HepG2 cells (galactose)
Description: as §4
Cell Culture and Cytotoxicity Studies
as §5, §6, §7, §8, §9, §10, §11, §12, §13, §14, §15, §16, §17, §18, §19, §20

[6] = Cytotoxicity in MRC5 fibroblasts, 5-day treatment; conditions: human, MRC5 fibroblasts
Description: as §4
Cell Culture and Cytotoxicity Studies
as §5, §6, §7, §8, §9, §10, §11, §12, §13, §14, §15, §16, §17, §18, §19, §20

[7] = Bone marrow erythroid progenitor colony assay, 14 days; format: cell-based, human; conditions: human, human bone marrow erythroid progenitors, read-out: Mean CC50 ± SD in Bone marrow cells Erythroid
[8] = system: mitochondrial spare respiratory capacity; experiment: Oxygen consumption rate / spare respiratory capacity in PC-3 cells; conditions: human, pH 7.4
Description: (§21) Mitochondrial respiration was monitored by measuring the rate of oxygen consumption (OCR) of PC-3 cells after 3-day treatments with the compounds, using a Seahorse extracellular flux analyzer (XF^e-96) based on published protocols ([22][–][24]). The optimal cell seeding was determined by measuring the basal OCR of PC-3 cells that were seeded at different densities of 2.5 × 10^3, 5 × 10^3, 7.5 × 10^3, and 10 × 10^3 cells/well in XF 96-well plates (Seahorse Bioscience, North Billerica, MA) and incubated with 0.5% dimethyl sulfoxide (DMSO) for 3 days. […] Each reagent in the Mito Stress test kit (Seahorse Biosciences), i.e., ATP synthase inhibitor oligomycin, mitochondrial uncoupler carbonyl cyanide-4-(trifluoromethoxy)phenylhydrazone (FCCP), and a fixed-ratio mixture of the mitochondrial complex I (NADH dehydrogenase) inhibitor rotenone and the complex III (CoQH2-cytochrome c reductase) inhibitor antimycin A, was titrated. The lowest concentration that reached the maximal effect was chosen for each reagent. The OCR signals were normalized by cell numbers using DNA content determined by Hoechst's stain as described below.
(§22) PC-3 cells were seeded at a density of 5 × 10^3 cells/well in XF 96-well plates and incubated with the compounds for 3 days. On the day of the assay, the cell medium was replaced with XF assay medium (pH 7.4) containing 10 mM glucose and 1 mM freshly prepared pyruvate. Mitochondrial respiration was monitored by measuring OCR on a Seahorse extracellular flux analyzer (XF^e-96). All concentrations listed are the final concentration after mixing unless noted otherwise. […] Spare respiratory capacity was obtained by subtracting the rate of basal respiration from the rate of maximal respiration.
(§23) The cells were lysed by freezing at −80°C for >2 h. […] In parallel, another set of cells was treated with the compounds for 3 days and the ATP levels were measured using CellTiter Glo viability reagents (Promega, Madison, WI).

[9] = system: mitochondrial spare respiratory capacity in PC-3 cells; experiment: as above; conditions: PC-3 cells, 3-day treatments
Description: as §21, §22, §23

[10] = Cytotoxicity in stimulated PBMCs, 5 days; conditions: human, stimulated PBMCs
[11] = Cytotoxicity in MT-4 T-cells, 5-day treatment; conditions: human, MT-4 cells
Description: Primary human hepatocytes were from Bioreclamation IVT (Westbury, NY) or Life Technologies (Carlsbad, CA).
as §4

[12] = system: mitochondrial DNA-encoded cytochrome c oxidase (COX-1); experiment: Mitochondrial protein synthesis assay (COX-1, MitoBiogenesis in-cell ELISA) in PC-3 cells; format: cell-based, human; conditions: PC-3 cells
Description: (§3) PC-3 cells were treated with the compounds for 5 days and analyzed with the MitoTox MitoBiogenesis in-cell enzyme-linked immunosorbent assay (ELISA) kit (MitoSciences/Abcam, Eugene, Oregon) as described previously ([13]). The assay uses quantitative immunocytochemistry to measure the protein levels of nuclear DNA-encoded succinate dehydrogenase (SDH-A; complex II [succinate dehydrogenase]) and mitochondrial DNA-encoded cytochrome c oxidase (COX-1; complex IV [cytochrome c oxidase]) in cultured cells.

[13] = system: mitochondrial DNA-encoded cytochrome c oxidase (COX-1; complex IV) protein level; experiment: as above; format: cell-based, human; conditions: human; PC-3 cells, COX-1, 5 days; read-out: Mean CC50 ± SD causing Mitochondrial toxicity: Protein synthesis
Description: as §3

[14] = Cytotoxicity in quiescent PBMCs, 5 days; conditions: human, quiescent PBMCs
Description: Human peripheral blood mononuclear cells (PBMCs) were isolated from human buffy coats obtained from healthy volunteers (Stanford Blood Bank, Palo Alto, CA) using standard Ficoll separation and stimulated as described elsewhere ([13]) and were tested at both quiescent and stimulated stages. Quiescent PBMCs were stimulated with 10 units per ml of recombinant human interleukin 2 (hIL-2) and 1 μg per ml phytohemagglutinin P (PHA-P) for 48 h prior to drug treatment.
as §4
Human peripheral blood mononuclear cells (PBMCs) were isolated from human buffy coats
obtained from normal healthy volunteers (Stanford Medical School Blood Center, Palo Alto,
CA). Total PBMCs were isolated from buffy coats using standard Ficoll separation and sterile
cellular isolation techniques performed in a bio-safety cabinet (1). Except where noted, the
procedure was carried out at room temperature. The final PBMCs pellet was resuspended in
Logan, UT), penicillin 100 units/mL and streptomycin 100 µg/mL (Gibco). For quiescent
PBMCs cultures, total cells were seeded in 96-well plates at a density of 1 x 10^6 cells per well, followed by immediate drug treatment. Stimulated PBMCs cultures were set up by seeding the freshly isolated PBMCs in T-175cm2 tissue culture flasks in 100 mL of RPMI containing the same components as the ones used for the quiescent PBMCs but with the addition of 10 units per mL of recombinant human interleukin-2 (hIL-2, Roche, Indianapolis, IN), and 1 µg per mL phytohemagglutinin-P (PHA-P, Sigma-Aldrich, St. Louis, MO) at density of 2  10^6 cells per mL for 48 hours at 37C in a 5% CO2 incubator with 90% humidity, prior to drug treatment.

[15] = Cytotoxicity in primary human hepatocytes, 5 days; conditions: human, primary human hepatocytes
[16] = Bone marrow myeloid progenitor colony assay, 14 days; format: cell-based, human; conditions: human, human bone marrow myeloid progenitors, read-out: Mean CC50 ± SD in Bone marrow cells Myeloid
[17] = system: nuclear DNA-encoded succinate dehydrogenase (SDH-A; complex II) protein level; experiment: Nuclear protein synthesis (SDH-A, MitoBiogenesis in-cell ELISA) in PC-3 cells; format: cell-based, human; conditions: human, read-out: Mean CC50 ± SD causing General cellular toxicity: Protein synthesis
Description: as §3

recombinant human PolRMT = target: T6, recombinant human PolRMT (Homo sapiens, UniProt O00411); experiment: Single-nucleotide incorporation by PolRMT; format: biochemical; conditions: triphosphate form, fixed saturating concentration 500 μM, rate relative to corresponding natural rNTP
T6 construct: purchased Enzymax (Lexington, KY)
T6 sequence (O00411 42-1230): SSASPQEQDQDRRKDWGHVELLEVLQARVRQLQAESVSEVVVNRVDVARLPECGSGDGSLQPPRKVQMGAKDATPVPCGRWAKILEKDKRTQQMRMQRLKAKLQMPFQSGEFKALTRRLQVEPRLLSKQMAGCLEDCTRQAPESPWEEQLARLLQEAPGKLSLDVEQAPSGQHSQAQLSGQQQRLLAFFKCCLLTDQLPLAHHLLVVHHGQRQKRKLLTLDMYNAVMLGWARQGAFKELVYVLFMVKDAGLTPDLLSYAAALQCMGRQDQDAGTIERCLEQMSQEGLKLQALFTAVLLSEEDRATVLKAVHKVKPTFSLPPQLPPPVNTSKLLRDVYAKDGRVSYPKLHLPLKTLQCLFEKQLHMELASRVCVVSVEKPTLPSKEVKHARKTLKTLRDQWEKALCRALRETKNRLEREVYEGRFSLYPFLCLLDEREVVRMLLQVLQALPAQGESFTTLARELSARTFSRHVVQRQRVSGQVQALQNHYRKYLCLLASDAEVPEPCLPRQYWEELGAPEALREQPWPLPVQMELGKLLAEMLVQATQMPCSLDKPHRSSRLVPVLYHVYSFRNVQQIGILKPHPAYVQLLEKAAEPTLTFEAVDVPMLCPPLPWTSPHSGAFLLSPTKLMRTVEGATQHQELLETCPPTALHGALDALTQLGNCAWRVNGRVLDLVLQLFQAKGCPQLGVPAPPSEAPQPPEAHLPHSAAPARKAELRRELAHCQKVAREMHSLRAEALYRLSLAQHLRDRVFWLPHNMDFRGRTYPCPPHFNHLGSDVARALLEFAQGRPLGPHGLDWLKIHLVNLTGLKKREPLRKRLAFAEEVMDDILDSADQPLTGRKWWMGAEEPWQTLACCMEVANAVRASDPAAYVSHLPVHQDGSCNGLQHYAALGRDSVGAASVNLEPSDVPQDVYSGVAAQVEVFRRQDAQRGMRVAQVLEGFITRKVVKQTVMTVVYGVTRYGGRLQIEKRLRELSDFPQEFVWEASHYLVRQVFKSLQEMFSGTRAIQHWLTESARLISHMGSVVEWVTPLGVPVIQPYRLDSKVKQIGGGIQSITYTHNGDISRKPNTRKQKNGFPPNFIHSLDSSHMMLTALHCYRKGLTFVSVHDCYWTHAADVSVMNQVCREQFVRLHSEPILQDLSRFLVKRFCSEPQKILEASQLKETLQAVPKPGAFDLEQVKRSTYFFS
Description: as §2, §1
Supplementary Table S1: RNA primer and templates used in mitochondrial RNA
polymerase single nucleotide incorporation assay.
Oligonucleotides Sequencesa
Primer (R12) 5’-[…]-3’
Templates (D18) 3’-[…]-5’
a The bold letter in the template sequences denotes the bases that pair with the incoming NTP. […]

For C[C@@]1(O)[C@H](O)[C@@H](COP(=O)(O)OP(=O)(O)OP(=O)(O)O)O[C@H]1n1cnc2c(N)ncnc21 [2′CMeATP], the IC50 (RNA PolI) was 190 ± 40 µM, the IC50 (RNA PolIII) was over 500 µM and the IC50 (RNA PolII) was over 500 µM.
C[C@@]1(O)[C@H](O)[C@@H](COP(=O)(O)OP(=O)(O)OP(=O)(O)O)O[C@H]1n1ccc(N)nc1=O [2′CMeCTP] gave an IC50 (RNA PolI) of 260 ± 40 µM, an IC50 (RNA PolIII) of over 500 µM and an IC50 (RNA PolII) of over 500 µM.
In the case of Cc1cn([C@H]2CC[C@@H](COP(=O)(O)OP(=O)(O)OP(=O)(O)O)O2)c(=O)[nH]c1=O [3′dTTP], the IC50 [1] is reported as 1.9 ± 0.8 µM and the IC50 [2] is reported as 1.2 ± 0.6 µM.
In the case of O=C(N[C@H](CO)[C@H](O)c1ccc([N+](=O)[O-])cc1)C(Cl)Cl [Chloramphenicol], the CC50 at 5 days [3] is reported as 16 ± 3 µM, the CC50 at 5 days [4] is reported as over 89 µM and the CC50 at 5 days [5] is reported as over 89 µM. For the same molecule, the CC50 at 5 days [6] was over 89 µM, the CC50 at 14 days [7] was 82 ± 29 µM and the CC50 at 3 days [8] was 4.5 ± 1.5 µM. For the same molecule, the “selectivity of effect on spare respiratory capacity versus DNA and ATP levels” value [9] was “specifically inhibited mitochondrial spare respiratory capacity”, the CC50 at 5 days [10] was over 100 µM and the CC50 at 5 days [11] was over 89 µM. For the same molecule, the “selectivity of effect on COX-1 versus SDH-A and ATP levels” value ([12]; 5-day treatments) was “specifically inhibited COX-1 synthesis”, the CC50 at 5 days [13] was 2.6 ± 0.6 µM and the CC50 at 5 days [14] was over 100 µM. For the same molecule, the CC50 at 5 days [15] was over 100 µM, the CC50 at 14 days [16] was over 100 µM and the CC50 at 5 days [17] was over 50 µM.
For NC(=O)c1ncn([C@@H]2O[C@H](CO)[C@@H](O)[C@H]2O)n1 [RBV, ribavirin], the “effect on mitochondrial or nuclear protein synthesis or ATP level” value ([12]; 5-day treatment, 10 μM) was “no appreciable effect”.
With CC(C)C(=O)OC[C@H]1O[C@@H](n2ccc(N)nc2=O)[C@](C)(F)[C@@H]1OC(=O)C(C)C [mericitabine] the “Substrate incorporation (% of NTP [mean ± SD]) of PolRMT” value (recombinant human PolRMT) was < 1 % of NTP.
